Experimental data reported in US9409892B2, “4-hydroxy-isoquinoline compounds as HIF hydroxylase inhibitors” (FIBROGEN, INC., priority 2012, dated 2016).

How the values were obtained:
PHD1 (EGLN2) = PHD1 (EGLN2) (Homo sapiens (Human), UniProt Q96KS0); assay: HIF-PH assay (14CO2 capture), PHD1 enzyme inhibition; type: biochemical; conditions: for IC50: individual measurement, read-out: IC50 (μM) PHD1
PHD2 (EGLN1) = PHD2 (EGLN1) (Homo sapiens (Human), UniProt Q9GZT9); assay: HIF-PH assay (14CO2 capture), PHD2 enzyme inhibition; type: biochemical; conditions: Table 1; individual measurement; read-out: IC50 (μM) PHD2
PHD2 (EGLN1), sequence (Q9GZT9 whole entry): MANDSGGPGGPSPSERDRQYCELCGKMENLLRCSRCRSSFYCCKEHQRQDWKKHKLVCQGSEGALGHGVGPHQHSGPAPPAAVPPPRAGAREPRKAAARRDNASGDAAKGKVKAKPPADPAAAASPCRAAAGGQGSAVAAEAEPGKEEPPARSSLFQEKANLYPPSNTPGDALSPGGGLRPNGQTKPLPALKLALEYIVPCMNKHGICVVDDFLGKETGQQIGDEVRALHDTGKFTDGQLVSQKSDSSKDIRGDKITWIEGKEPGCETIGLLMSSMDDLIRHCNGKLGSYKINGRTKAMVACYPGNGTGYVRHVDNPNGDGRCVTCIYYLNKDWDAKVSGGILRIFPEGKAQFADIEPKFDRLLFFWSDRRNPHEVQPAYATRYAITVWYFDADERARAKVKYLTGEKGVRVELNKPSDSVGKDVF

[1] = Table 1, ratio of the IC50 of the compound for each enzyme

PHD1 (EGLN2), sequence (Q96KS0 whole entry): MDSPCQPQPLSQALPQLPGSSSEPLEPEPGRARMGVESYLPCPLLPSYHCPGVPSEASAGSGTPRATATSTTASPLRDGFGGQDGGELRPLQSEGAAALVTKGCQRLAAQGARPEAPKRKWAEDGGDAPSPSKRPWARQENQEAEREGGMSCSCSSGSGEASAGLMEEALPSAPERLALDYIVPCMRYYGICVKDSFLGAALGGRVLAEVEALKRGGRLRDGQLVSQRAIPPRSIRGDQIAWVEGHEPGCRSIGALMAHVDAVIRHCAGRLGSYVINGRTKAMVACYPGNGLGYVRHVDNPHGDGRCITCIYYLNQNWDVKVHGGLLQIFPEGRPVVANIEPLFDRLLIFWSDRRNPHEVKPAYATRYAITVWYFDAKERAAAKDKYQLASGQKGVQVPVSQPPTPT

Compound	IC50 (PHD1 (EGLN2); Table 1) [µM]	PHD2/PHD1 (PHD1 (EGLN2); [1])	IC50 (PHD2 (EGLN1)) [µM]	PHD2/PHD1 (PHD1 (EGLN2); Table 2 comparative data, IC50 PHD2/IC50 PHD1)
CC(C)(CCNC(=O)c1ncc2cc(Oc3ccccc3)ccc2c1O)C(=O)O [Compound 8, 4-[(4-Hydroxy-7-phenoxy-isoquinoline-3-carbonyl)-amino]-2,2-dimethyl-butyric acid]	11.6	10	119	
N#Cc1nc(C(=O)NCC2(C(=O)O)CCOCC2)c(O)c2ccc(Oc3ccccc3)cc12 [Compound 16, 4-{[(1-Cyano-4-hydroxy-7-phenoxy-isoquinoline-3-carbonyl)-amino]-methyl}-tetrahydro-pyran-4-carboxylic acid]	1.89	13	24.3	
O=C(O)CCCCNC(=O)c1ncc2cc(Oc3ccccc3)ccc2c1O [Compound 5, 5-[(4-Hydroxy-7-phenoxy-isoquinoline-3-carbonyl)-amino]-pentanoic acid]	2.75	22	61.7	
O=C(O)CCCNC(=O)c1ncc2cc(Oc3ccccc3)ccc2c1O [Compound 4, 4-[(4-Hydroxy-7-phenoxy-isoquinoline-3-carbonyl)-amino]-butyric acid]	1.17	6	7	
CC(=O)N[C@H](CCNC(=O)c1nc(C#N)c2cc(Oc3ccccc3)ccc2c1O)C(=O)O [Compound 51, (R)-2-Acetylamino-4-[(1-cyano-4-hydroxy-7-phenoxy-isoquinoline-3-carbonyl)-amino]-butyric acid]	0.28	7.5	2.1	
N#Cc1nc(C(=O)NCC2(C(=O)O)CC2)c(O)c2ccc(Oc3ccccc3)cc12 [Compound 12, 1-{[(1-Cyano-4-hydroxy-7-phenoxy-isoquinoline-3-carbonyl)-amino]-methyl}-cyclopropanecarboxylic acid]	0.17	9	1.62	
Cc1ccc(Oc2ccc3c(O)c(C(=O)NCC(C)(C)C(=O)O)nc(C#N)c3c2)cc1 [Compound 44, 3-[(1-Cyano-4-hydroxy-7-p-tolyloxy-isoquinoline-3-carbonyl)-amino]-2,2-dimethyl-propionic acid]	0.28	14	3.9	
CCC(C)(CNC(=O)c1nc(C#N)c2cc(Oc3ccccc3)ccc2c1O)C(=O)O (stereo not shown) [Compound 58, 2-{[(1-Cyano-4-hydroxy-7-phenoxy-isoquinoline-3-carbonyl)-amino]-methyl}-2-methyl-butyric acid]	1.1	11	12.3	
N#Cc1nc(C(=O)NCC[C@H](N)C(=O)O)c(O)c2ccc(Oc3ccccc3)cc12 [Compound 45, (S)-2-Amino-4-(1-cyano-4-hydroxy-7-phenoxyisoquinoline-3-carboxamido)butanoic acid]	1.41	26	36.7	
O=C(NC[C@H](O)C(=O)O)c1ncc2cc(Oc3ccccc3)ccc2c1O [Compound 3, 2-(S)-Hydroxy-3-[(4-hydroxy-7-phenoxy-isoquinoline-3-carbonyl)-amino]propionic acid]	1.08	14	15.6	14

Continued, values first:

IC50 (PHD1 (EGLN2); Table 1) [µM]	PHD2/PHD1 (PHD1 (EGLN2); [1])	IC50 (PHD2 (EGLN1)) [µM]	PHD2/PHD1 (PHD1 (EGLN2); Table 2 comparative data, IC50 PHD2/IC50 PHD1)	Compound
2.86	5	13.6		CC(C)(CNC(=O)c1nc(C#N)c2cc(Oc3ccccc3)ccc2c1O)CC(=O)O [Compound 89, 4-[(1-Cyano-4-hydroxy-7-phenoxy-isoquinoline-3-carbonyl)-amino]-3,3-dimethyl-butyric acid]
23.7	8	181		CC(C)(CNC(=O)c1ncc2cc(Cc3ccccc3)ccc2c1O)C(=O)O [Compound 146, 3-[(7-Benzyl-4-hydroxy-isoquinoline-3-carbonyl)-amino]-2,2-dimethyl-propionic acid]
12.4	16	200		O=C(O)CCCNC(=O)c1ncc2cc(NC(=O)c3ccc(F)cc3)ccc2c1O [Compound 120, 4-{[7-(4-Fluoro-benzoylamino)-4-hydroxy-isoquinoline-3-carbonyl]-amino}-butyric acid]
6.45	18	113		O=C(O)CCNC(=O)c1ncc2cc(NC(=O)c3ccc(F)cc3)ccc2c1O [Compound 118, 3-{[7-(4-Fluoro-benzoylamino)-4-hydroxy-isoquinoline-3-carbonyl]-amino}-propionic acid]
1.49	16	23.5		CC(C)(CNC(=O)c1nc(C#N)c2cc(OC3CCCCC3)ccc2c1O)C(=O)O [Compound 156, 3-[(1-Cyano-7-cyclohexyloxy-4-hydroxy-isoquinoline-3-carbonyl)-amino]-2,2-dimethyl-propionic acid]
2.88	9	24.5		O=C(O)CCCNC(=O)c1ncc2cc(-c3ccc(F)cc3)ccc2c1O [Compound 148, 4-{[7-(4-Fluoro-phenyl)-4-hydroxy-isoquinoline-3-carbonyl]-amino}-butyric acid]
0.48	6	3.06		CCc1ccccc1Oc1ccc2c(O)c(C(=O)NCC(C)(C)C(=O)O)nc(C#N)c2c1 [Compound 62, 3{-[1-Cyano-7-(2-ethyl-phenoxy)-4-hydroxy-isoquinoline-3-carbonyl]-amino}-2,2-dimethyl-propionic acid]
7.21	28	200		CC(C)(CNC(=O)c1nc(-c2cncc(F)c2)c2cc(Oc3ccccc3)ccc2c1O)C(=O)O [Compound 136, 3-{[1-(5-Fluoro-pyridin-3-yl)-4-hydroxy-7-phenoxy-isoquinoline-3-carbonyl]-amino}-2,2-dimethyl-propionic acid]
0.34	6	2.11		CC(C)(CCNC(=O)c1nc(C#N)c2cc(Oc3ccccc3)ccc2c1O)C(=O)O [Compound 84, 4-[(1-Cyano-4-hydroxy-7-phenoxy-isoquinoline-3-carbonyl)-amino]-2,2-dimethyl-butyric acid]
2.38	12	27.6		O=C(O)CCNC(=O)c1ncc2cc(-c3ccc(F)cc3)ccc2c1O [Compound 132, 3-{[7-(4-Fluoro-phenyl)-4-hydroxy-isoquinoline-3-carbonyl]-amino}-propionic acid]
5.25	8	42.1		Cc1ccccc1Oc1ccc2c(C#N)nc(C(=O)NCC(C)(C)C(=O)O)c(O)c2c1 [Compound 155, 3-[(1-Cyano-4-hydroxy-6-o-tolyloxy-isoquinoline-3-carbonyl)-amino]-2,2-dimethyl-propionic acid]
12.6	6	72.3		O=C(O)CCCNC(=O)c1ncc2cc(NC(=O)Nc3ccccc3)ccc2c1O [Compound 119, 4-{[4-Hydroxy-7-(3-phenyl-ureido)-isoquinoline-3-carbonyl]-amino}-butyric acid]
34	6	200		COc1ccc(CNc2ccc3c(O)c(C(=O)NCC(C)(C)C(=O)O)ncc3c2)cc1 [Compound 126, 3-{[4-Hydroxy-7-(4-methoxy-benzylamino)-isoquinoline-3-carbonyl]-amino}-2,2-dimethyl-propionic acid]
